Measurements as given in US10023841B2, “Methods and compositions for treating breast cancer with dendritic cell vaccines” (Baylor Research Institute, priority 2014, dated 2018).
The star is where a group is joined. Cbz = O=C(OCc1ccccc1)*; CH2F = FC*

Key:
[1] = target: T1, TAK1 (Homo sapiens, UniProt O43318); assay: Caspase-1 activity (FACS) in monocytes treated with cancer-culture sups; type: cell-based; conditions: monocytes treated with cancer-culture sups 16 hours; 200 nm TAK1 inhibitor
T1 construct: endogenous in cells; host or cells: human blood monocytes, monocyte-derived DCs and blood mDCs
T1 sequence (O43318 1-606): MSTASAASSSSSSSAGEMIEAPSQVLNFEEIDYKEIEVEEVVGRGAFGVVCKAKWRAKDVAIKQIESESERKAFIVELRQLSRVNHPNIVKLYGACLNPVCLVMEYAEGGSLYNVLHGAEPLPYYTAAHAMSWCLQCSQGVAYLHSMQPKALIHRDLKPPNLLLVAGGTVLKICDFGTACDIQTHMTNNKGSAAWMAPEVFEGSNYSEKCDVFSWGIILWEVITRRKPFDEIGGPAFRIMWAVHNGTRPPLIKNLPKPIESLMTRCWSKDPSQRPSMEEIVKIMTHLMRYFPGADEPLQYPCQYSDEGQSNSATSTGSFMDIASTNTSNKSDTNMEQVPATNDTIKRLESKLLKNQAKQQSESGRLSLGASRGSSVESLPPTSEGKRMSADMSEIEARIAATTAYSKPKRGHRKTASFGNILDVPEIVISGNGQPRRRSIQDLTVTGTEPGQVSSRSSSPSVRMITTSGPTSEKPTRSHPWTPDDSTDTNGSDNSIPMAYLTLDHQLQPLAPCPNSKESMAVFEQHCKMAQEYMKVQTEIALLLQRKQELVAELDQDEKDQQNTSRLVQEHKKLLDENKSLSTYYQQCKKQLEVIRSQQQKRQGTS
Procedure: For surface staining, cells were incubated with the antibodies for 30 minutes at 4° C. in the dark, then washed three times and fixed with 1% paraformaldehyde to be analyzed in a FACS Canto (Becton Dickinson). […] For caspase-1 staining, cells were incubated with substrates (CaspaLux-E1D2, Oncolmmunin, Inc.) for 50 minutes at 37° C. and washed with washing buffer 2 times, then stained for surface markers for 10 minutes at room temperature.
Monocytes were treated with cancer-culture sups for 16 hours in the presence of a TAK1 specific inhibitor or DMSO as control. Caspase-1 activity was measured using the FACS based method. Cells were gated based on CD11c^+ viable cells.

[2] = target: T1, TAK1; assay: IL-1β in co-culture of cancer cells and myeloid cells upon TAK1 inhibition; type: cell-based
Procedure: When mDCs were co-cultured with MDA-MB231 cells for 5-90 minutes, phosphorylated (p)TAK1 could only be detected after 60 minutes (FIG. 7D). To confirm that the phosphorylation of TAK1 is TGF-β mediated, TGF-β signaling blocking reagents (TGF-β neutralizing antibody and TGF-βR kinase inhibitor) were added to the co-culture of cancer cells and mDCs. […] To examine whether TAK1-signaling participate in modulation of IL-1β production, a co-culture of cancer cells and myeloid cells was used. […]

[3] = system: HS-578t or MDA-MB231 cells; assay: TSLP induction in breast cancer cell lines by cytokines (real-time PCR, Luminex); type: cell-based, human; conditions: for TSLP mRNA level by quantitative real-time PCR: HS-578t and MDA-MB231 cells, 10 ng/ml, as early as 2 hours
Procedure: […] For tumor cells and mDCs coculture experiment, 100 k tumor cells were seeded in 24 well plate to grow overnight, then media was refreshed and 100 k mDCs were added to coculture for another 24-72 h. For the transwell experiment, 24-well-plate with inserts were used (Corning). 200K tumor cells were seeded in the plate to grow at least overnight, then 200 k mDCs were added into inserts. After 48 h of co-culture, supernantants were harvested to determine IL-1β level by ELISA (Duoset, R&D System).
Samples were treated and lysed with Buffer RLT, and then stored at −80° C. until RNA extraction. Total RNA was isolated and purified from each sample by using RNeasy kit and RNase-free DNase (Qiagen) according to the manufacturer's instructions. cDNA was generated from total RNA with iScript™ cDNA Synthesis Kit. The resulting cDNA was then used for quantitative gene expression analysis on a Sequence Detection System 7,500 (Applied Biosystems). The primers used were as follows: human (h)TSLP, 5′-[…]-3′ (SEQ ID NO:41) and 5′-[…]-3 (SEQ ID NO:42), and human (h)IL-1β, 5′-[…]-3′ (SEQ ID NO:43) and 5′-[…]-3′ (SEQ ID NO:44), human (h) GAPDH, 5′-[…]-3′ (SEQ ID NO:45) and 5′-[…]-3′ (SEQ ID NO:46), human (h) ABL1, 5′-[…]-3′ (SEQ ID NO:47) and 5′ […]-3′ (SEQ ID NO:48), human (h) PGK1, 5′-[…]-3′ (SEQ ID NO:49) and 5′-[…]-3′ (SEQ ID NO:50), human (h) PES1, 5′-[…]-3′ (SEQ ID NO:51) and 5′-A […]-3′ (SEQ ID NO:52). Equal amounts of cDNA were used with the iTaq SYBR Green Supermix with ROX (Bio-Rad) and primer mix according to the real-time PCR protocols supplied by the manufacturer. Amplification efficiencies were validated against the housekeeping gene, GAPDH, PES1, and ABL1. […] The relative quantification of target gene expression was done by the comparative cycle threshold (CT) method. […]
Different pro-inflammatory cytokines have the potential to induce TSLP from keratinocytes, both transcriptionally and translationally. […] Cells were harvested and TSLP mRNA levels were measured by quantitative real-time PCR (FIG. 4A). […] TSLP levels in the culture supernatants were determined by Luminex. […]

[4] = target: T2, caspase-1 (Homo sapiens, UniProt P29466); assay: MDA-MB231/mDC co-culture with caspase-1 inhibitor: proIL-1β and mature IL-1β staining; type: cell-based
T2 construct: MDA-MB231 cells and mDCs were co-cultured in chamber well; endogenous in cells; host or cells: human blood mDCs co-cultured with MDA-MB231 cells
T2 sequence (P29466 120-297 limits assumed): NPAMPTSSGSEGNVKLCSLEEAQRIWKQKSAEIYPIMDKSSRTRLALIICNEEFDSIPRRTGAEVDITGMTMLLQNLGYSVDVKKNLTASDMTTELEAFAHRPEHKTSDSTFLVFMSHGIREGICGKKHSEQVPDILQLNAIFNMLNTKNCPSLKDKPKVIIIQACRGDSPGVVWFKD
T2 sequence (P29466 317-404 limits assumed): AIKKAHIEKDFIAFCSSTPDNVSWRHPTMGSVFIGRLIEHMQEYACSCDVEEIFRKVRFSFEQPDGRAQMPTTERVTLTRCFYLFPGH
Procedure: In most cases, caspase-1 is needed for proteolytic cleavage and secretion of mature IL-1β. It was tested whether TGF-β-dependent IL-1β production also required the activation of caspase-1. MDA-MB231 cells and mDCs were co-cultured in chamber well in presence of 1 uM of caspase-1 inhibitor or DMSO as vehicle control. 18 hours later, cells were fixed and stained with specific antibody against pro-peptide of IL-1β (FIG. 7A), or mature IL-1β (FIG. 7B), both accompanied with HLA-DR staining. […] Four areas were counted for the percentage of proIL-1β^+ cells within HLA-DR^+ cells for both DMSO or caspase-1 inhibitor treated wells. Almost 95% of mDCs show accumulation of proIL-1β intracellularly, while only around 50% of mDCs express proIL-1β (FIG. 7A right panel). Using a similar experimental system, mature IL-1β production in presence or absence of caspase-1 inhibitor was also measured.

[5] = system: Hs-578t breast cancer cells; assay: Tumor growth of Hs-578t xenograft in irradiated NOD/SCID/β2m−/− mice reconstituted with DCs and T cells; type: in vivo
Procedure: (§1) NOD/SCID/β2 m^−/− mice ([…]) were sublethally irradiated (12 cGy/g body weight of 137Cs γ irradiation) the day before tumor implantation. Then 10 million Hs-578t breast cancer cells harvested from cultures were injected subcutaneously into the flanks. Mice were then reconstituted with 1 million monocyte-derived DCs (MDDCs) and autologous T cells. CD4^+ and CD8^+ T cells were positively selected from thawed PBMCs using magnetic selection according to the manufacturer's instructions (Miltenyi Biotec). The purity was routinely >90%. 10 million CD4^+ T cells and 10 million CD8^+ T cells were transferred at days 3, 6, and 9 after tumor implantation. MDDCs were generated from the adherent fraction of PBMCs by culturing with 100 ng/ml GM-CSF and 10 ng/ml IL-4 (R&D Systems). Anakinra (2 mg/kg body weight) or PBS were injected daily in peritumor area since day 3 after tumor engraftment. 200 ug TSLPR blocking antibody was given on day 3,6,9. In some experiments, TGF-13 blocking antibody was given on day 3,6,9. Tumor size was monitored every 2-3 d. Tumor volume (ellipsoid) was calculated as follows: ([short diameter]^2×long diameter)/2. On day 16, the tumors were harvested. In some experiments, only one time DCs and total T cells transfer was done. Cell suspension was obtained from breast cancer tissue of above mice. Cell suspensions were obtained by digestion with 2.5 mg/ml of collagenase D (Roche Diagnostics, Indianapolis, Ind.), and 200 U/ml of DNAse I (Sigma-Aldrich, St. Louis, Mo.) for 30 minutes at 37° C. Washed three times and analyzed with FACS-CantoII (Becton Dickinson).
Thus, involvement of IL-1β in the TSLP-dependent in vivo model was evaluated. The availability of IL-1β in the xenograft mice model was first evaluated. HS-578t cells were injected subcutaneously into the flank of irradiated NOD/SCID/β2 m^−/− mice. MDDCs plus autologous total T cells were injected intratumorally on D3,6, and 9 after tumor cells injection (FIG. 15A). When tumors grew to 100-150 mm^3 in volume, mice were sacrificed and tumors were frozen in OCT for tissue staining. Similar with what observed in patient primary tumors (FIG. 5), IL-1β^+ cells also infiltrated in the tumor of xenograft model (FIG. 15B). […] Then we tried to understand whether TGF-β or IL-1β blocking could affect tumor growth through affecting the availability of IL-1β. Anti-TGF-β neutralizing antibody, isotype antibody as control, IL-1R antagonist Anakinra, or anti-TSLPR neutralizing antibody were each injected together with DC plus T cells (FIG. 15A). […] In some experiments, small pieces of tumor tissue from mice were cultured for 16 hours in the presence of PMA and ionomycin. Th2 cytokines were measured by Luminex in the culture sups (FIG. 8B).

[6] = system: Th2 cytokines; assay: Cytokines by Luminex in supernatants of day 16 mouse tumor fragments stimulated with PMA and ionomycin; type: in vivo, mice; conditions: day 16 tumors; versus PBS group
Procedure: as §1
Thus, involvement of IL-1β in the TSLP-dependent in vivo model was evaluated. The availability of IL-1β in the xenograft mice model was first evaluated. HS-578t cells were injected subcutaneously into the flank of irradiated NOD/SCID/β2 m^−/− mice. MDDCs plus autologous total T cells were injected intratumorally on D3,6, and 9 after tumor cells injection (FIG. 15A). […] Th2 cytokines were measured by Luminex in the culture sups (FIG. 8B).

[7] = system: CD4^+CD3^+T cells; assay: Intracellular cytokine FACS of CD4+CD3+ T cells from xenograft tumors; type: in vivo, mice
Procedure: as §1
To confirm whether the decreased IL-13 level is due to less infiltration of IL-13 producing cells, single cell suspensions were prepared from the tumors harvested from both the PBS and the Anakinra treatment groups. Intracellular staining for cytokines including IL-13, IL-4, TNF-α, and IFN-γ were combined with CD4, CD3 surface staining. Cells were analyzed by FACS, and gated on viable CD4^+CD3^+T cells. […] In the PBS group, about 10.2-46.4% of CD4^+CD3^+T cells express IL-13. […]

[8] = 100 mg daily SC; cited from earlier work
[9] = pediatric patients with SOJIA; cited from earlier work
[10] = xenograft model, summary statement
[11] = tumors harvested from Anakinra treatment group

COc1cc(O)c2c(c1)/C=C/C[C@H](O)[C@H](O)C(=O)/C=C\C[C@H](C)OC2=O [TAK1 inhibitor, 5z-7-oxozeaenol]
activation of caspase-1 in monocytes [1]: prevented the activation of caspase-1 | IL-1β levels in co-culture supernatants (Luminex) ([2]; cancer cells with monocytes, MDDC or mDC, 48 hours): Substantially lower amounts of IL-1β were secreted | expression of IL-1β by mDCs and monocytes (intracellular staining) ([2]; co-culture 16 hours): prevented the expression of IL-1β by mDCs and monocytes

IL-1β: cytokine obtained from R&D
TSLP mRNA level by quantitative real-time PCR [3]: induce significant TSLP transcription | TSLP levels in the culture supernatants (Luminex) ([3]; MDA-MB231 cells, different doses, 48 hours): induce TSLP production in a dose-dependent manner

Cbz-WEHD-CH2F [caspase-1 inhibitor]
percentage of proIL-1β+ cells within HLA-DR+ cells ([4]; 1 uM caspase-1 inhibitor, MDA-MB231 cells and mDCs co-cultured 18 hours): ~95% | mature IL-1β staining ([4]; caspase-1 inhibitor, MDA-MB231 cells and mDCs co-culture): less mature IL-1β was detected

Anakinra: recombinant soluble non-glycosylated homolog of the human interleukin-1 receptor antagonist (IL-1Ra)
tumor volume (mean) ([5]; day 16, Anakinra 2 mg/kg daily peritumoral since day 3): 13 mm^3 | tumor volume increase in PBS group compared to the Anakinra group ([5]; end of the observation, day 16): ~10 fold | OX40L+ expression on DCs ([5]; in vivo): blocks OX40L+ expression on DCs | tumor growth in vivo [5, 10]: prevents tumor growth in vivo | IL-4 in tumor tissue culture sups [6]: less IL-4 | IL-13 in tumor tissue culture sups [6]: less IL-13 | TSLP production in tumor tissue [6]: less TSLP production | CD4^+CD3^+T cells expressing IL-13 [7, 11]: 0.39-2.5% | effect on TNF-α and IFN-γ in CD4^+CD3^+T cells [7, 11]: no specific effect on TNF-α and IFN-γ | iTh2 generation in vivo [7, 10]: blocks iTh2 generation in vivo | most common adverse reaction [8]: injection site reaction | safety profile [8]: favorable safety profile | patients with remarkable clinical and hematological responses [9]: > 70 % of patients

B1: IL-1α: cytokine obtained from R&D (protein, UniProt P01583 113-271, looked up)
Interleukin-1 alpha: SAPFSFLSNVKYNFMRIIKYEFILNDALNQSIIRANDQYLTAAALHNLDEAVKFDMGAYKSSKDDAKITVILRISKTQLYVTAQDEDQPVLLKEMPEIPKTITGSETNLLFFWETHGTKNYFTSVAHPNLFIATKQDYWVCLAGGPPSITDFQILENQA
TSLP mRNA level by quantitative real-time PCR [3]: induce significant TSLP transcription
